Reference: patent US20210069169A1, “PHARMACEUTICAL COMPOSITIONS” (priority 2007, published 2021)
Where two headings read alike, the source gives them in different places.

Assays:
endometrium = experiment: ERC-210: endometrial biopsy; assay type: in vivo, postmenopausal women; details: 3 months intravaginal; biopsies before and after 12 weeks
Description: Endometrial biopsy was performed at screening and at month 3 at end of study. All biopsies were examined by the same pathologist at the central laboratory (Dr. Robert Dubé, Department of cytology-pathology, Enfant-Jésus Hospital, Quebec City, Canada).

[1] = Example 2: serum steroids after oral DHEA capsules or percutaneous DHEA cream or gel
Description: Thirty-six healthy 60-70-year-old postmenopausal women participated in the study after IRB approval and having given their written informed consent. Body weight was within ±20% of normal body weight according to Metropolitan Life Tables.
This study was a randomized open-label trial of 12 subjects per arm. After written informed consent was obtained and women were found eligible, each subject was randomized to receive DHEA by cream, get or orally. Daily, before breakfast, for 14 days, subjects received, at the research clinic, either 4 g of 10% DHEA gel or 4 g of 10% DHEA cream applied on a total 30 cm×30 cm area of the thighs or two 50 mg capsules of DHEA orally before breakfast.
Blood sampling was performed at 08:00-09:00 h at screening and before application of DHEA, on the first day of dosing, as well as on days 2, 4, 7, 10 and 14. On the 1st and 14th days, blood samples were obtained at 0.5 h, 1 h, 1.5 h, 2 h, 3 h, 4 h, 5 h, 6 h, 7 h, 8 h, 12 h and 24 h following DHEA administration. […] Serum steroid analysis
DHEA, DHEA-S, androst-5-ene-3β,17β-diol (5-diol), testosterone, androstenedione (4-dione), 17β-estradiol (E2), estrone (E1), estrone sulfate (E1-S), androsterone glucuronide (ADT-G), and androstane-3,17β-diol glucuronide (3 α-diol-G) were measured by gas chromatography/mass spectrometry (DHEA, 5-diol, 4-dione, testosterone, E1 and E2) using electron impact or chemical ionization and by liquid chromatography/tandem mass spectrometry using turboionspray (DHEA-S, E1-S, ADT-G and 3α-diol-G) as described (Labrie, Bélanger et a., 2006; Labrie, Bélanger, et al, 2007b and Swanson et al. 2007).
On days 1 and 14, the area under the curve of the serum concentration of each steroid was measured between 0 h and 24 h (AUC0-24 h). The areas under the curves were calculated by a linear trapezoidal method (model-independent). The relative bioavailability of the DHEA gel, DHEA cream and DHEA capsules was based on the mean difference in the log-transformed AUC values, All calculations were performed with the SAS software (SAS Institute, Cary, N.C., USA).

[2] = tested on: postmenopausal women suffering from vaginal atrophy; experiment: ERC-210: vaginal examination (secretions, color, epithelial integrity, thickness); assay type: in vivo; details: 2, 4, 8 and 12 weeks
Description: At the same time intervals of 2, 4, 8 and 12 weeks, the gynecologist or physician in charge of the study at each site performed a vaginal exam to evaluate the degree of severity (none, mild, moderate or severe, analyzed using values of 0, 1, 2 and 3, respectively) for the main signs of vaginal atrophy, namely vaginal secretions, vaginal color, vaginal epithelial integrity and vaginal epithelial surface thickness. […] In fact. the beneficial effects observed by the gynecologist and or physician are almost superimposable to those self-reported by women on their most bothersome symptoms.
Vaginal examination was performed at screening and then at day 1 and at 2, 4, 8 and 12 weeks. Vaginal secretions, vaginal color, vaginal epithelial integrity and vaginal epithelial surface thickness were evaluated according to the following degrees of severity: none, mild, moderate or severe.

[3] = ERC-213: serum DHEA and eleven metabolites after daily intravaginal DHEA suppositories; assay type: in vivo, postmenopausal women; details: highest dose (Table 2)
Description: The primary objective of that study was the evaluation of the systemic bioavailability of DHEA and its metabolites following daily intravaginal application of suppositories at four different DHEA concentrations. This study was a randomized, placebo-controlled and double-blind trial of 10-subjects per arm.

postmenopausal women = details: cited from earlier work
[4] = cited from earlier work
[5] = oral 150 mg (Buster et al. 1992)
[6] = oral 300 mg (Buster et al. 1992)

## C[C@]12CC[C@H](O)CC1=CC[C@@H]1[C@@H]2CC[C@]2(C)C(=O)CC[C@@H]12 [DHEA, dehydroepiandrosterone]
endometrium
  Endometrial histology: no effect on endometrial histology
[1]; female, human, serum, po
  Higher amount of circulating DHEA-S at same DHEA exposure, oral vs percutaneous: 6.7-9.0 fold
  Transformation of DHEA into 4-dione, oral vs percutaneous: 2.70-3.76 times
[1]; percutaneous DHEA (DHEA change 406%)
  Efficacy of transformation into active androgens: 52%
[2]
  Signs of vaginal atrophy at vaginal exam: highly statistically significant improvement of all four signs of vaginal atrophy
[3]
  Average serum DHEA: 4.76 ± 0.42 ng/mL

## C[C@]12CC[C@@H]3c4ccc(O)cc4CC[C@H]3[C@@H]1CC[C@@H]2O [E2, 17β-estradiol]
Postmenopausal women; 25 μg intravaginally, 12 months
  % of cases with persisting dyspareunia: 12.4%
Postmenopausal women; 12 weeks intravaginal 25 μg E2 (Bachmann et al. 2008)
  % of patients with pH less than 5: 51%

## CCCCC(=O)O[C@H]1CC[C@H]2[C@@H]3CCc4cc(O)ccc4[C@H]3CC[C@]12C [estradiol valerate]
Postmenopausal women; 2 mg/day, 3 months
  Increase of Ki labeling in endometrium: 50%

## C[C@]12CC[C@H](O)CC1=CC[C@@H]1[C@@H]2CC[C@]2(C)C(=O)CC[C@@H]12 [micronized DHEA]
[4]; [5]
  Maximal serum DHEA-S: ~10 µg/mL
  Maximal serum testosterone: ~1.6 ng/mL
[4]; [6]
  Maximal serum DHEA: ~15 ng/mL
  Maximal serum testosterone: ~2.75 ng/mL

## CCCCCCCCCCC(=O)O[C@H]1CC[C@H]2[C@@H]3CCC4=CC(=O)CC[C@]4(C)[C@H]3CC[C@]12C [testosterone undecanoate]
Postmenopausal women; 40 mg every second day
  Effect on the endometrium: no effect on the endometrium
